Target: ROCK2 (human) (UniProt O75116)
Test: Assessment of ROCK2 Kinase Activity

ROCK2 (human), sequence (O75116 whole entry, looked up): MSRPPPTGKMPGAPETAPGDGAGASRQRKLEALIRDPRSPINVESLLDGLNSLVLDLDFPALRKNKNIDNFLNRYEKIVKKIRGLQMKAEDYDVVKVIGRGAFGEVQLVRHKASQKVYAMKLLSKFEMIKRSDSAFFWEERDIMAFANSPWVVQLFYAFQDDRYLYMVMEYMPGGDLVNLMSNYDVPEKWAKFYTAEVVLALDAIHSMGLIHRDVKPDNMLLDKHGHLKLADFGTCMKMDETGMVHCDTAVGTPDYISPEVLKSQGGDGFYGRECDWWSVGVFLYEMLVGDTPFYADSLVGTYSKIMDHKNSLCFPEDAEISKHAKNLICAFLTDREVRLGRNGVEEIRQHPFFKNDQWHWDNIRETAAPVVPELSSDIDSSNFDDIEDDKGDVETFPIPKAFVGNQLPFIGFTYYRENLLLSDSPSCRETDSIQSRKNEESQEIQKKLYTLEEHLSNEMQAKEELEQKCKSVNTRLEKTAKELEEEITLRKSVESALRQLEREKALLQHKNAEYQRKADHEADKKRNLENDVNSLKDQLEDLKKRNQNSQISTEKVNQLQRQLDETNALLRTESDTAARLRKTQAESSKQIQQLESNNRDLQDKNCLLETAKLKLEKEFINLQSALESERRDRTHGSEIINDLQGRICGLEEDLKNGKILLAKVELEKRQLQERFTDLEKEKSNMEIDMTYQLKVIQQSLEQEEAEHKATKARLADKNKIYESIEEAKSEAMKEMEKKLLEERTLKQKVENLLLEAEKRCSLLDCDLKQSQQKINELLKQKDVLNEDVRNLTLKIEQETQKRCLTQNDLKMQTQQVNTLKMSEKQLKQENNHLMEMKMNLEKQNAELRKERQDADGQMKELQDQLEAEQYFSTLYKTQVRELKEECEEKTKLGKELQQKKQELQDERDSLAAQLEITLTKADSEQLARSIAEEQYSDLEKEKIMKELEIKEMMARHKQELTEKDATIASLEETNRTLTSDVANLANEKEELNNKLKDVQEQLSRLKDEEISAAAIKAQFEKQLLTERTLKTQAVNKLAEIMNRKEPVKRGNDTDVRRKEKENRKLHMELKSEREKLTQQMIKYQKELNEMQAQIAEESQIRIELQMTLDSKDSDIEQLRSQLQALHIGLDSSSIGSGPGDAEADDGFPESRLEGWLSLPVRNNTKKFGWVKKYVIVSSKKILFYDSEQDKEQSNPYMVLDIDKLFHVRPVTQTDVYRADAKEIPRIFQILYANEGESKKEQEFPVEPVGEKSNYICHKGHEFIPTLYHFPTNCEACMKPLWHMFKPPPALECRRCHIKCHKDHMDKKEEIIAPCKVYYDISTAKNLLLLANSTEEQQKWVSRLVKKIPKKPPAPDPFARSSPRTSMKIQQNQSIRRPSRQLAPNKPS

| IC50 [nM] | SMILES |
| --- | --- |
| < 100 | COc1cccc(CNC(=O)c2nn(CCN(C)C)c3cc(-c4ccncc4)ccc23)c1 |
| < 100 | COc1cccc(CN(C)C(=O)c2n[nH]c3cc(-c4cn[nH]c4)ccc23)c1 |
| < 100 | COc1cccc(CN(CCN2CCCC2)C(=O)c2cc3ccc(-c4cn[nH]c4)cc3[nH]2)c1 |
| < 100 | COc1cccc(CN(CCN(C)C)C(=O)c2cnc3cc(-c4cn[nH]c4)ccn23)c1 |
| < 100 | COc1cccc(CNC(=O)c2n[nH]c3cc(-c4cn[nH]c4)ccc23)c1 |
| < 100 | COc1cccc(CNC(=O)c2cc3ccc(-c4cn[nH]c4)nc3n2C)c1 |
| < 100 | COc1cccc(CCNC(=O)c2n[nH]c3cc(-c4cn[nH]c4)ccc23)c1 |
| 100 to 1000 | COc1cccc(CNC(=O)c2c3ccc(-c4cn[nH]c4)cc3nn2CC2CC2)c1 |
| 100 to 1000 | COc1cccc(CNC(=O)c2cn3cc(-c4cn[nH]c4)ccc3n2)c1 |
| < 100 | COc1cccc(CNC(=O)c2c[nH]c3cc(-c4cn[nH]c4)ccc23)c1 |
| < 100 | COc1cccc(CNC(=O)c2cc3ccc(-c4cn[nH]c4)cc3[nH]2)c1 |
| 100 to 1000 | COc1cccc(CNC(=O)c2[nH]c3cc(-c4cn[nH]c4)ccc3c2CN(C)Cc2ccccc2)c1 |
| 100 to 1000 | COc1cccc(CNC(=O)c2c3ccc(-c4ccnc(N)n4)cc3nn2CC2CC2)c1 |
| < 100 | COc1cccc(CN(C)C(=O)c2cc3ccc(-c4cn[nH]c4)cc3[nH]2)c1 |
| < 100 | COc1cccc(CN(CC2CC2)C(=O)c2n[nH]c3cc(-c4cn[nH]c4)ccc23)c1 |
| < 100 | COc1ccccc1CNC(=O)c1n[nH]c2cc(-c3cn[nH]c3)ccc12 |
| 100 to 1000 | COc1cccc(CNC(=O)c2cn3cc(-c4ccnc(N)n4)ccc3n2)c1 |
| 100 to 1000 | O=C(NCCc1cccnc1)c1c[nH]c2cc(-c3cn[nH]c3)ccc12 |
| < 100 | COc1cccc(CN(CCN(C)C)C(=O)c2n[nH]c3cc(-c4cn[nH]c4)ccc23)c1 |
| < 100 | COc1cccc(CNC(=O)c2cc3ccc(-c4cn[nH]c4)nc3n2CCN2CCCC2)c1 |
| < 100 | COc1cccc(CNC(=O)c2cnc3cc(-c4cn[nH]c4)ccn23)c1 |
| < 100 | COc1cccc(CNC(=O)c2nn(CCN(C)C)c3cc(-c4cn[nH]c4)ccc23)c1 |
| 100 to 1000 | COc1cccc(CCNC(=O)c2cn(CCN(C)C)c3cc(-c4cn[nH]c4)ccc23)c1 |

| IC50 [nM] | SMILES |
| --- | --- |
| 100 to 1000 | COc1cccc(CNC(=O)c2cn(-c3cccc(C(F)(F)F)c3)c3cc(-c4cn[nH]c4)ccc23)c1 |
| < 100 | COc1cccc(CNC(=O)c2nn(C)c3cc(-c4cn[nH]c4)ccc23)c1 |
| < 100 | COc1cccc(CNC(=O)c2[nH]c3cc(-c4cn[nH]c4)ccc3c2CN2CCN(C)CC2)c1 |
| < 100 | COc1cccc(CN(C)C(=O)c2cc3ccc(-c4cn[nH]c4)nc3[nH]2)c1 |
| 100 to 1000 | COc1ccc(CNC(=O)c2c[nH]c3cc(-c4cn[nH]c4)ccc23)cc1 |
| < 100 | O=C(NCc1ccccc1)c1cnc2cc(-c3cn[nH]c3)ccn12 |
| < 100 | COc1cccc(CN(CCCN2CCN(C)CC2)C(=O)c2cc3ccc(-c4cn[nH]c4)nc3[nH]2)c1 |
| < 100 | COc1cccc(CNC(=O)c2cc3ccc(-c4c[nH]nc4C)nc3[nH]2)c1 |
| < 100 | COc1cccc(CNC(=O)c2cc3ccc(-c4cn[nH]c4)cc3n2CCCO)c1 |
| 100 to 1000 | COc1cccc(CNC(=O)c2[nH]c3cc(-c4cn[nH]c4)ccc3c2CN2CCCC2c2ccccc2)c1 (configuration not stated) |
| < 100 | COc1cccc(CN(CCCN(C)C)C(=O)c2cn(C)c3cc(-c4cn[nH]c4)ccc23)c1 |
| < 100 | O=C(NCC1CCCCC1)c1c[nH]c2cc(-c3cn[nH]c3)ccc12 |
| < 100 | COc1cccc(CN(CCN(C)C)C(=O)c2cn3cc(-c4cn[nH]c4)ccc3n2)c1 |
| < 100 | COc1cccc(CN(C(=O)c2cc3ccc(-c4cn[nH]c4)nc3[nH]2)C2CC2)c1 |
| < 100 | COc1cccc(CNC(=O)c2cc3ccc(-c4cn[nH]c4)nc3[nH]2)c1 |
| < 100 | Cc1ccccc1CNC(=O)c1n[nH]c2cc(-c3cn[nH]c3)ccc12 |
| < 100 | COc1cccc(CNC(=O)c2cn(C)c3cc(-c4cn[nH]c4)ccc23)c1 |
| < 100 | COc1ccc2c(c1)CC(c1cc(=O)n3cc(-c4cn[nH]c4)ccc3n1)CO2 (configuration not stated) |
| < 100 | COc1cccc(CN(CCN2CCCC2)C(=O)c2cc3ccc(-c4cn[nH]c4)nc3[nH]2)c1 |
| < 100 | COc1cccc(CNC(=O)c2cc3ccc(-c4cn[nH]c4)nc3n2CCCO)c1 |
| 100 to 1000 | COc1ccc2c(c1)CC(c1cc(=O)n3cc(-c4ccncc4)ccc3n1)CO2 (configuration not stated) |
| < 100 | COc1cccc(CN(CCN(C)C)C(=O)c2cc3ccc(-c4cn[nH]c4)nc3[nH]2)c1 |

| SMILES | IC50 [nM] |
| --- | --- |
| CCCn1nc(C(=O)NCc2cccc(OC)c2)c2ccc(-c3cn[nH]c3)cc21 | < 100 |
| COc1cccc([C@@H](C)NC(=O)c2cn(CCN3CCCC3)c3cc(-c4cn[nH]c4)ccc23)c1 | < 100 |
| COc1cccc(CN(CCN(C)C)C(=O)c2nn(CC3CC3)c3cc(-c4cn[nH]c4)ccc23)c1 | < 100 |
| COc1cccc(CN(C)C(=O)c2cn(CCCO)c3cc(-c4cn[nH]c4)ccc23)c1 | < 100 |
| COc1cccc(CNC(=O)c2nn(CC3CC3)c3cc(-c4ccnc(N)n4)ccc23)c1 | < 100 |
| COc1ccccc1CNC(=O)c1cn(CCCO)c2cc(-c3cn[nH]c3)ccc12 | < 100 |
| COc1cccc(CNC(=O)c2cn(CCN3CCCC3)c3cc(-c4cn[nH]c4)ccc23)c1 | < 100 |
